Laboratory results published in patent publication US11152578B2, “Sulfonium salts of DNTT and related compounds as soluble photocleavable precursors for organic semiconductors for use in organic field-effect transistors” (Clap Co., Ltd., priority 2017, dated 2021).
Where two headings read alike, the source gives them in different places.

How the values were obtained:
[1] = Solubility in various solvents at 25° C.; assay type: physicochemical; settings: organic solvent or mixture
Protocol: The solubility of the compound 1Aa at 25° C. was compared to the solubility of compound 2Aa in various solvents.

[2] = background statement, no solvent given; cited from earlier work
[3] = CH3CN, read-out: solubility in CH3CN
[4] = CHCl3, read-out: solubility in CHCl3
[5] = DMF, read-out: solubility in DMF

| solubility [1, 3] [µg/mL] | solubility [1, 4] [µg/mL] | solubility [1, 5] [µg/mL] | SMILES | solubility (in words) [2] |
| --- | --- | --- | --- | --- |
| 5000 | 5000 | 8000 | CCC(C)(C)c1ccc(-[s+]2c3cc4ccccc4cc3c3sc4cc5ccccc5cc4c32)cc1.F[B-](F)(F)F (stereo not shown) [Compound 1Aa] | – |
| < 1000 | < 1000 | < 1000 | c1ccc2cc3c(cc2c1)sc1c2cc4ccccc4cc2sc31 [Compound 2Aa, dinaphtho[2,3-b:2′,3′-f]thieno[3,2-b]thiophene] | low solubility |
